# Assay: Contact with human skin and nose
# Format: in vivo
# Conditions: pH of less than 0.5
# From the text: As discussed above, AGIIS has relatively less dehydrating properties (such as charring sucrose) as compared to the saturated solution of CaSO4 in the same concentration of H2SO4. […] AGIIS is non-volatile at room temperature.
structure (smiles),measurement,value
O=S(=O)(O)O [sulfuric acid],irritation of a hand put into the solution,an irritation would occur within a relatively short span of time
